Laboratory results reported in patent US12246034B2, “Animal feed supplement and method” (CAN TECHNOLOGIES, INC., priority 2014, dated 2025).
Where two headings read alike, the source gives them in different places.

How the values were obtained:
sows [1] = settings: for Probability of a higher Vitality score: scored within 30 seconds after birth; for Average weight at weaning: piglets
Experimental: A trial was conducted at the Sterksel Research farm in the Netherlands (part of Wageningen University Research). A total of 207 sows were used in the trial allocated based on parity over 6 treatments (n=34). […] Calcium levels were the same in all diets.
(§1) Until farrowing, sows received a fixed amount of feed (3.25 kg from day 107-113 and 2.7 kg/sow/day from day 113 till farrowing). During lactation the sows were fed the diets according to a step-up feeding schedule applied (increasing with 0.5 kg/sow/day) the same over the 6 treatments aiming at a peak intake of 7.5 kg/sow/day. Piglets were weaned from the sow at 27 days of age. Performance of sows (e.g. weight, backfat, piglets born alive, stillborn piglets, mortality of piglets) and piglets (e.g. weight at birth, after 48 hours and weaning) was measured on all sows and litters. A subset of sows (19-20 per treatment) was examined more in detail to get insight in the possible mode of action of nitrate. On this subset, blood samples were collected within 4 minutes after birth from 2 piglets out of every 4 piglets born. Blood gasses of umbilical cord blood were analyzed using the i-STAT handheld (Abbott). Vitality of piglets was scored within 30 seconds after birth according to Baxter et al. (2008) with 1 being the lowest and 4 being the highest score for vitality.

[2] = for pCO2 - Measured value / pH / pO2 - Measured value: umbilical cord blood piglets
Description: as §1

sows [3] = tested on: sows
Experimental: A field trial was conducted on a commercial farm in Denmark with 650 highly productive Danbred sows (Landrace x Yorkshire) inseminated with a pure line Duroc boar, between Nov. 17, 2014 and Jan. 16, 2015. A total of 139 sows (total number before analyzes) were included in the trial, divided over 3 subsequent sow groups farrowing over a time span of 6 weeks. For all analyzes SAS software (version 9.3, SAS Institute Inc., Cary, N.C.) was used. Sows received a dry meal transition feed (from gestation to lactation), fed from day 111 of gestation till day 5 of lactation, and were allocated to one of the two treatment groups based on parity. […] The total amount of calcium was equal between both experimental treatments. Number born alive (NBA), stillborn and mummies, litter birth weight, as well as back fat of the sows before farrowing (day 110 of gestation) and at weaning (day 24 of lactation) were measured. Litter weights at 24 hours and 3 days after birth were measured as well. On day 3 after birth blood samples were taken from 6 piglets (2 biggest, 2 medium and 2 smallest) from 65 litters of their tails when they were cut and analyzed on immunoglobulin G (IgG) concentration. Placentas of the sows were collected after the farrowing process was finished, stored in freezers and afterwards scored on redness for an indication of the vascularization of these placentas.

[4] = 0.03% nitrate in lactation diet
[5] = 0.06% nitrate in lactation diet
[6] = 0.09% nitrate in lactation diet
[7] = 0.12% nitrate in lactation diet
[8] = 0.15% nitrate in lactation diet
[9] = across 0.03-0.15% nitrate in feed
[10] = across 0.03-0.15% nitrate in lactation diet
[11] = across 0.03-0.15% nitrate, P<0.05

Q: With `O=[N+]([O-])O` [Nitrate, nitrate] as the molecule, how does the “Aver. birth weight born alive pigs” value (sows [1]; [4]) read?
A: 1308 grams

Q: What about the Average livability % (sows [1]; [4]) of the same molecule?
A: 76.1%

Q: What about the Average mortality % (sows [1]; [4]) of the same molecule?
A: 16.5%

Q: And the “Average piglet weight after 48 hours” value (sows [1]; [4])?
A: 1.611 kg

Q: And the Probability born alive (sows [1]; [4])?
A: 0.95

Q: What about the Probability livability (sows [1]; [4]) of the same molecule?
A: 0.85

Q: And the Probability mortality (sows [1]; [4])?
A: 0.10

Q: What about the Probability weaned (sows [1]; [4]) of the same molecule?
A: 0.91

Q: And the Total born (sows [1]; [4])?
A: 16.8

Q: What about the Total born alive (sows [1]; [4]) of the same molecule?
A: 15.2

Q: What about the Total born mummified (sows [1]; [4]) of the same molecule?
A: 0.6

Q: What about the Total still born (sows [1]; [4]) of the same molecule?
A: 1.6

Q: What about the Total weaned (sows [1]; [4]) of the same molecule?
A: 12.3

Q: And the “total birth weight litter life born piglets” value (sows [1]; [4])?
A: 19.5 kg

Q: And the “total litter weight weaning” value (sows [1]; [4])?
A: 91.8 kg

Q: What about the “Probability of a higher Vitality score” value (sows [1]; [4]) of the same molecule?
A: 0.70

Q: What about the “Aver. birth weight born alive pigs” value (sows [1]; [5]) of the same molecule?
A: 1320 grams

Q: And the Average livability % (sows [1]; [5])?
A: 78.3%

Q: What about the Average mortality % (sows [1]; [5]) of the same molecule?
A: 16.2%

Q: And the “Average piglet weight after 48 hours” value (sows [1]; [5])?
A: 1.598 kg

Q: And the Probability born alive (sows [1]; [5])?
A: 0.97

Q: What about the Probability livability (sows [1]; [5]) of the same molecule?
A: 0.86

Q: What about the Probability mortality (sows [1]; [5]) of the same molecule?
A: 0.10

Q: What about the Probability weaned (sows [1]; [5]) of the same molecule?
A: 0.91

Q: What about the Total born (sows [1]; [5]) of the same molecule?
A: 16.8

Q: And the Total born alive (sows [1]; [5])?
A: 15.7

Q: What about the Total born mummified (sows [1]; [5]) of the same molecule?
A: 0.7

Q: And the Total still born (sows [1]; [5])?
A: 1.1

Q: What about the Total weaned (sows [1]; [5]) of the same molecule?
A: 12.4

Q: And the “total birth weight litter life born piglets” value (sows [1]; [5])?
A: 20.3 kg

Q: What about the “total litter weight weaning” value (sows [1]; [5]) of the same molecule?
A: 91.8 kg

Q: What about the “Probability of a higher Vitality score” value (sows [1]; [5]) of the same molecule?
A: 0.74

Q: And the “Aver. birth weight born alive pigs” value (sows [1]; [6])?
A: 1329 grams

Q: What about the Average livability % (sows [1]; [6]) of the same molecule?
A: 81.3%

Q: What about the Average mortality % (sows [1]; [6]) of the same molecule?
A: 12.7%

Q: What about the “Average piglet weight after 48 hours” value (sows [1]; [6]) of the same molecule?
A: 1.621 kg

Q: And the Probability livability (sows [1]; [6])?
A: 0.89

Q: And the Probability mortality (sows [1]; [6])?
A: 0.07

Q: And the Probability weaned (sows [1]; [6])?
A: 0.94

Q: What about the Total born (sows [1]; [6]) of the same molecule?
A: 16.1

Q: What about the Total born mummified (sows [1]; [6]) of the same molecule?
A: 0.5

Q: What about the Total still born (sows [1]; [6]) of the same molecule?
A: 1.2

Q: And the “total birth weight litter life born piglets” value (sows [1]; [6])?
A: 20.2 kg

Q: And the “total litter weight weaning” value (sows [1]; [6])?
A: 96.9 kg

Q: What about the “Probability of a higher Vitality score” value (sows [1]; [6]) of the same molecule?
A: 0.80

Q: What about the “Aver. birth weight born alive pigs” value (sows [1]; [7]) of the same molecule?
A: 1326 grams

Q: And the Average livability % (sows [1]; [7])?
A: 80.0%

Q: And the Average mortality % (sows [1]; [7])?
A: 14.0%

Q: What about the “Average piglet weight after 48 hours” value (sows [1]; [7]) of the same molecule?
A: 1.640 kg

Q: What about the Probability born alive (sows [1]; [7]) of the same molecule?
A: 0.96

Q: What about the Probability livability (sows [1]; [7]) of the same molecule?
A: 0.88

Q: What about the Probability mortality (sows [1]; [7]) of the same molecule?
A: 0.08

Q: And the Probability weaned (sows [1]; [7])?
A: 0.93

Q: And the Total born (sows [1]; [7])?
A: 17.1

Q: What about the Total born alive (sows [1]; [7]) of the same molecule?
A: 15.8

Q: What about the Total born mummified (sows [1]; [7]) of the same molecule?
A: 0.5

Q: And the Total still born (sows [1]; [7])?
A: 1.3

Q: What about the Total weaned (sows [1]; [7]) of the same molecule?
A: 13.0

Q: And the “total birth weight litter life born piglets” value (sows [1]; [7])?
A: 20.8 kg

Q: And the “total litter weight weaning” value (sows [1]; [7])?
A: 98.6 kg

Q: What about the “Probability of a higher Vitality score” value (sows [1]; [7]) of the same molecule?
A: 0.78

Q: What about the “Aver. birth weight born alive pigs” value (sows [1]; [8]) of the same molecule?
A: 1355 grams

Q: What about the Average livability % (sows [1]; [8]) of the same molecule?
A: 79.0%

Q: And the Average mortality % (sows [1]; [8])?
A: 14.8%

Q: What about the “Average piglet weight after 48 hours” value (sows [1]; [8]) of the same molecule?
A: 1.692 kg

Q: And the Probability born alive (sows [1]; [8])?
A: 0.96

Q: And the Probability livability (sows [1]; [8])?
A: 0.87

Q: And the Probability mortality (sows [1]; [8])?
A: 0.09

Q: What about the Probability weaned (sows [1]; [8]) of the same molecule?
A: 0.92

Q: What about the Total born (sows [1]; [8]) of the same molecule?
A: 16.6

Q: And the Total born alive (sows [1]; [8])?
A: 15.3

Q: And the Total born mummified (sows [1]; [8])?
A: 0.3

Q: And the Total still born (sows [1]; [8])?
A: 1.3

Q: And the Total weaned (sows [1]; [8])?
A: 12.6

Q: What about the “total birth weight litter life born piglets” value (sows [1]; [8]) of the same molecule?
A: 21.0 kg

Q: And the “total litter weight weaning” value (sows [1]; [8])?
A: 96.8 kg

Q: And the “Probability of a higher Vitality score” value (sows [1]; [8])?
A: 0.79

Q: And the “Total litter weight at weaning on increasing nitrate addition” value (sows [1]; [9])?
A: significantly (P<0.05) improved

Q: What about the “Vitality score of the piglets on increasing nitrate addition” value (sows [1]; [9]) of the same molecule?
A: significantly (P<0.05) improved

Q: And the “livability, effect of higher nitrate levels” value (sows [1]; [10])?
A: increase

Q: What about the “mortality, effect of higher nitrate levels” value (sows [1]; [10]) of the same molecule?
A: tended to lower

Q: And the “weaned piglets per litter, effect of higher nitrate levels” value (sows [1]; [10])?
A: more

Q: What about the “average piglet birth weight with increasing nitrate levels” value (sows [1]; [11]) of the same molecule?
A: higher

Q: And the “average piglet weight at 48 h with increasing nitrate levels” value (sows [1]; [11])?
A: higher

Q: And the “total liter birth weight with increasing nitrate levels” value (sows [1]; [11])?
A: higher

Q: And the “Probability of weaned piglets with increasing nitrate inclusion” value (sows [1]; across 0.03-0.15% nitrate, P<0.10)?
A: improved

Q: What about the Probability born alive (sows [1]; in vivo) of the same molecule?
A: 0.96

Q: What about the Total born alive (sows [1]; in vivo) of the same molecule?
A: 14.9

Q: What about the Total weaned (sows [1]; in vivo) of the same molecule?
A: 12.7

Q: And the “Average weight at weaning” value (sows [1]; [4])?
A: 7.439 kg

Q: And the “Average weight at weaning” value (sows [1]; [5])?
A: 7.321 kg

Q: What about the “Average weight at weaning” value (sows [1]; [6]) of the same molecule?
A: 7.472 kg

Q: And the “Average weight at weaning” value (sows [1]; [7])?
A: 7.550 kg

Q: What about the “Average weight at weaning” value (sows [1]; [8]) of the same molecule?
A: 7.608 kg

Q: And the “pCO2 - Measured value” ([2]; 0.03% nitrate in sow diet)?
A: 34.1 mmHg

Q: And the pH ([2]; 0.03% nitrate in sow diet)?
A: 7.5

Q: And the “pO2 - Measured value” ([2]; 0.03% nitrate in sow diet)?
A: 33.8 mmHg

Q: What about the “pCO2 - Measured value” ([2]; 0.06% nitrate in sow diet) of the same molecule?
A: 34.5 mmHg

Q: What about the pH ([2]; 0.06% nitrate in sow diet) of the same molecule?
A: 7.5

Q: And the “pO2 - Measured value” ([2]; 0.06% nitrate in sow diet)?
A: 35.4 mmHg

Q: And the “pCO2 - Measured value” ([2]; 0.09% nitrate in sow diet)?
A: 34.9 mmHg

Q: And the pH ([2]; 0.09% nitrate in sow diet)?
A: 7.5

Q: What about the “pO2 - Measured value” ([2]; 0.09% nitrate in sow diet) of the same molecule?
A: 34.5 mmHg

Q: And the “pCO2 - Measured value” ([2]; 0.12% nitrate in sow diet)?
A: 34.5 mmHg

Q: And the pH ([2]; 0.12% nitrate in sow diet)?
A: 7.5

Q: What about the “pO2 - Measured value” ([2]; 0.12% nitrate in sow diet) of the same molecule?
A: 35.6 mmHg

Q: And the “pCO2 - Measured value” ([2]; 0.15% nitrate in sow diet)?
A: 34.8 mmHg

Q: What about the pH ([2]; 0.15% nitrate in sow diet) of the same molecule?
A: 7.5

Q: And the “pO2 - Measured value” ([2]; 0.15% nitrate in sow diet)?
A: 35.3 mmHg

Q: And the “pO2 values with increasing nitrate addition” value ([2]; umbilical cord blood, across 0.03-0.15% nitrate)?
A: linearly improved

Q: What about the “NBA (Number Born Alive)” value (sows [3]; 0.1% Bolifor CNF in transition feed, LS Means ± SEM) of the same molecule?
A: increased

Q: What about the “NBD (Number Born Death), stillborn piglets” value (sows [3]; 0.1% Bolifor CNF in transition feed, log transformed, back-transformed to absolute values) of the same molecule?
A: decreased

Q: And the “Colostrum, CI (Colostrum Intake)” value (sows [3]; 0.1% Bolifor CNF, calculated colostrum intake)?
A: No differences were found
